A short description of the data set: Compatibility test of silodosin with polymer-based materials. The data set is classed as physicochemical. Conditions: silodosin:material 1:1 by mass, 40° C., 75% relative humidity, 4 weeks, visual examination. On the procedure:
Silodosin and a variety of polymer-based materials were mixed in the mass ratio of 1:1. The mixtures were stored at 40° C. under 75% relative humidity for 4 weeks, and the changes on blending, i.e. incompatibility, were checked. Degradation products were quantified by a liquid chromatography method and a degree of discoloration was checked by visual examination.
Samples equivalent to 20 mg of silodosin were weighed, and test solutions were prepared and analyzed by the liquid chromatography method. Each peak area was measured by an automatic integration method and a content rate of degradation product (KMD-3241) (%) was calculated by an area percentage method.
Detector: Ultraviolet Absorption Photometer (Wavelength: 225 nm)

For the molecule `C[C@H](Cc1cc2c(c(C(N)=O)c1)N(CCCO)CC2)NCCOc1ccccc1OCC(F)(F)F` [Silodosin (reference), Silodosin], the “Color change (fading)” value is “−”.
